This note sets out measurements from PubChem BioAssay (NCI).

Molecules are shown by their SMILES. Where “and” joins values, the source holds several entries; their conditions need not be identical. Equal entries are not always repeated.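 A five-concentration, 48-hour dose response in 96-well plates underlies each endpoint, interpolated linearly between surrounding concentrations. GI50: concentration for 50% inhibition of growth. TGI marks complete inhibition of growth.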 Where only a bound is given, the exact number is not on record here.

Common to all, as to assay: growth of human tumour cells (NCI), 48 h
Assay [1] has as its system SW-620 colon.
Assay [2] has as its system T-47D breast.
For assay [3], the system named is HCT-15 colon.
Assay [4] deals with CCRF-CEM leukemia.
The test system of assay [5] is OVCAR-3 ovarian.
Assay [6] has as its system SF-295 CNS.
The subject of assay [7] is SR leukemia.
The test system of assay [8] is A498 renal.
In assay [9] the test system is 786-0 renal.
The subject of assay [10] is NCI-H226 lung.

With `c1csc(-c2csc(-c3cccs3)c2)c1`, the TGI in assay [1], in [2], in assay [3], in assay [4], in [5] and in [6] was over 100 µM in each case. For the same molecule, the figures for the TGI in [7], in [8] and in assay [9] were 66.8 µM, over 100 µM and over 100 µM, respectively.
Consider `Cc1cc(C(C)(C)C)c(OCCCN2CCOCC2)c(C(C)(C)C)c1`, for which the TGI in assay [1] came out at 32.3 µM; in [2], 34.1 µM; in assay [3], 32.7 µM; in assay [4] it was 33.2 µM; in [5], 36.1 µM; in [6], 33.1 µM. Besides, the TGI in [7] came to 47 µM; in [8], 33.4 µM; in [9] it was 31.9 µM.
In the case of `NC(=S)N1N=C(c2ccc3c(c2)CCC3)CC1c1ccccc1` (stereo not given), the TGI in assay [10] was over 100 µM; in [1], over 100 µM; in assay [2], 27.9 µM; in assay [3], 69.6 µM; in assay [4], over 100 µM; in [5] it was 55.8 µM. Further, the TGI was 68.3 µM in assay [6], 95.5 µM in assay [7], 29.2 µM in assay [8] and over 100 µM in [9].
Turning to `CC1=C(C(=O)OC(C)C)C(c2cccc([N+](=O)[O-])c2)C(C(=O)OC(CO[N+](=O)[O-])CO[N+](=O)[O-])=C(C)N1` (stereo not given), the TGI is 30.6 µM in assay [10]; over 100 µM in [1]; over 100 µM in [2]; 19 µM in [3]; over 20.1 µM in assay [4]; over 22.1 µM in assay [5]. Also, the values for the TGI in assay [6], in [7] and in assay [9] were 0.991 µM, 15.6 µM and over 100 µM, respectively.
For the molecule `CN(NC(=O)/C(=C/C=C/c1ccccc1)NC(=O)c1ccccc1)C1=C(Cl)C(=O)[N+](c2ccccc2)=CC1`, the TGI in assay [10] amounted to 37.7 µM; in assay [1] it was 33.8 µM; in assay [2] it was 38.8 µM; in assay [3], 62.8 µM; in [5], 44.9 µM; in assay [6] it was 81.5 µM. Besides, the TGI is 66.6 µM in assay [7], over 100 µM in [8] and 39.2 µM in [9].
Turning to `O=C(O)c1cc2c(cc1CC(Cc1ccccc1)C(=O)O)CCC2` (stereo not given), the TGI in assay [10], in [1], in assay [2], in assay [3], in [4] and in [5] was over 100 µM throughout. Moreover, the TGI in assay [6], in assay [7], in assay [8] and in assay [9] was over 100 µM in each case.
In the case of `O=C(NC(Cc1c[nH]c2ccccc12)C(=O)O)/C(=C/c1ccccc1)NC(=O)c1ccccc1` (stereo not given), the TGI in [10], in assay [1], in [2], in assay [3], in assay [4] and in assay [5] was over 100 µM throughout. Moreover, the TGI in assay [6], in [7], in assay [8] and in assay [9] was over 100 µM each time.
As to `CCOc1cc(C=Nc2ccc(Oc3ccc(Cl)cc3)c(Cl)c2)ccc1O`, the TGI in [10] was 90.2 µM; in assay [1] it was over 100 µM; in [2], over 100 µM; in [3], 47.3 µM; in [4], 50.8 µM; in [5], 85.7 µM. The TGI in assay [6] was 38.8 µM; in [7] it was 57 µM; in [8], 36.6 µM; in [9] it was 34 µM.
Consider `Oc1cc(Br)cc2cc(Br)cnc12`, for which the TGI in assay [10] is 86.5 µM; in assay [1], over 100 µM; in assay [2], 8.41 µM; in assay [3], over 100 µM; in assay [4], 6.27 µM; in assay [6], 28 µM. The TGI in assay [7] came to 11 µM; in assay [8] it was 24.2 µM; in [9], 71.1 µM.
For `Fc1ccccc1C1SCC2=Nc3ccccc3CN21` (stereo not given), the TGI in assay [1], in [2], in assay [3], in [4], in [5] and in assay [6] was over 100 µM each time. In addition, the TGI in assay [7], in [8] and in assay [9] was over 100 µM each time.
As to `O/N=C1/CCCCC1NO` (stereo not given), the TGI in assay [10], in assay [1], in assay [2], in assay [3], in assay [4] and in assay [5] was over 100 µM throughout. Further, the TGI in assay [6], in assay [7] and in assay [9] was over 100 µM throughout.
Take `CC(=O)Oc1ccc(-c2c(OC(C)=O)c(OC(C)=O)c(-c3ccc(OC(C)=O)c(OC(C)=O)c3)c(OC(C)=O)c2OC(C)=O)cc1`: the TGI was found to be 35.5 µM in [10]; 38.6 µM in assay [1]; 29.2 µM in assay [2]; 37.3 µM in assay [3]; 37.4 µM in assay [4]; 30 µM in assay [5]. Moreover, the TGI in assay [6] was 21.3 µM; in assay [7] it was 49.7 µM; in assay [8], over 100 µM; in assay [9] it was 30.6 µM.
With `C[N+](C)(C)c1nc(N)nc2c1ncn2C1OC(CO)C(O)C1O` (stereo not given), the TGI in assay [1], in assay [2], in assay [3], in [4], in assay [5] and in [7] was over 100 µM in each case. Also, the TGI in [8] and in [9] was over 100 µM each time.
Turning to `Nc1ncc(Cc2nn3c(COc4ccc(Cl)cc4)nnc3s2)s1`, the TGI in assay [10] is over 100 µM; in assay [1], over 100 µM; in assay [2] it was over 100 µM; in assay [3] it was 19.1 µM; in [4] it was over 100 µM; in [5], over 100 µM. Besides, the TGI in assay [6], in assay [7] and in assay [9] was over 100 µM throughout.
With `COC(=O)C[C@H]1[C@]2(C)C3=C(C)[C@H](c4ccoc4)CC3O[C@@H]2[C@@H]2OC(=O)[C@]3(C)CCC(=O)[C@@]1(C)[C@@H]23` (stereo not given in full), the TGI is over 100 µM in [1]; over 100 µM in assay [2]; over 100 µM in assay [3]; 45.1 µM in assay [4]; over 100 µM in [5]; over 100 µM in assay [6]. The TGI was 59.6 µM in assay [7], over 100 µM in assay [8] and over 100 µM in [9].
As for `COC(=O)[C@]12CCC(=O)N1[C@H](C(=O)O)Cc1c2[nH]c2ccccc12`, the TGI in assay [1], in assay [2], in assay [3], in assay [4], in [5] and in assay [6] was over 100 µM throughout. The TGI in assay [7], in [8] and in assay [9] was over 100 µM each time.
In the case of `Cc1cc2nnn(C3CCCO3)c2cc1C` (stereo not given), the TGI in assay [10], in assay [2], in assay [3], in assay [4], in [5] and in assay [6] was over 100 µM each time. For the same molecule, the TGI in [7], in [8] and in assay [9] was over 100 µM in each case.
Turning to `CNc1ccc([N+](=O)[O-])cc1C(=O)N1CCC[C@H]1CO`, the TGI in [10], in assay [1], in [2], in [3], in assay [4] and in assay [6] was over 100 µM throughout. Also, the TGI in assay [7], in assay [8] and in assay [9] was over 100 µM each time.
As for `OCC(CO)CC1COc2ccccc2O1` (stereo not given), the TGI in [10], in [1], in [2], in [3], in assay [4] and in assay [5] was over 10 µM throughout. Moreover, the TGI in [6], in assay [7] and in assay [8] was over 10 µM each time.
As for `COc1cc(/C=C/C=C2\CC(C)C/C(=C\C=C\c3ccc(O)c(OC)c3)C2=O)ccc1O` (stereo not given), the TGI in assay [10] is 28 µM; in assay [1], over 100 µM; in [2], over 100 µM; in assay [3], over 100 µM; in assay [4] it was 15.6 µM; in assay [5], 31.1 µM. The TGI in assay [7] is 91.4 µM; in assay [9] it was 47.9 µM.
On to `CC[N+]1(C)CCC(O)(/C=C/c2ccc(Cl)c(Cl)c2)C(C(=O)/C=C/c2ccc(Cl)c(Cl)c2)C1` (stereo not given), for which the TGI in [10] was 14.6 µM; in assay [1] it was 4.47 µM; in assay [2], 4.87 µM; in [3] it was 7.13 µM; in assay [5], 10.6 µM; in [6], 13.9 µM. Further, the TGI in assay [7] was over 22.7 µM; in assay [8], 7.12 µM; in [9] it was 3.46 µM.
`CC(C)(C)OC(=O)N[C@@H](Cc1ccccc1)C(=O)N1CC[C@@H](C(=O)N2[C@H]3CC4CC[C@@]3(CS2(=O)=O)C4(C)C)N1`: the TGI in [10] was over 100 µM; in [1], over 100 µM; in assay [2], 51.1 µM; in assay [3], over 100 µM; in assay [4] it was over 100 µM; in [5], over 100 µM. Further, the TGI in [7], in assay [8] and in assay [9] was over 100 µM each time.
`NCCCN1CCN(CCCNc2ccc3ncn4c5ccccc5c(=O)c2c34)CC1`: the TGI was over 25 µM in assay [1]; 12.1 µM in assay [2]; over 25 µM in [3]; over 25 µM in assay [4]; over 25 µM in [5]; 15.7 µM in assay [6]. Also, the figures for the TGI in assay [7], in assay [8] and in assay [9] were over 25 µM, 5.63 µM and 24 µM, respectively.
With `CCn1c2ccccc2c2cc(NC(=O)c3c(C)[nH]c(=O)[nH]c3=S)ccc21`, the TGI in assay [10], in assay [1], in [2], in assay [3], in assay [4] and in [5] was over 100 µM in each case. Besides, the TGI in assay [6], in [7] and in [8] was over 100 µM in each case.
As to `CC1(C)CN=C(c2ccc3ccccc3c2O)N1`, the TGI in [1] was over 100 µM; in assay [2] it was over 100 µM; in [3] it was over 100 µM; in [4], over 100 µM; in assay [5] it was over 100 µM; in assay [6], 9.29 µM. For the same molecule, the TGI in [7], in assay [8] and in assay [9] was over 100 µM in each case.
In the case of `O=C1C(=O)C(CCCO)(CCCO)CCCCCCCCC1(CCCO)CCCO`, the TGI in [10], in assay [1], in [2], in assay [3], in [5] and in assay [6] was over 100 µM in each case. For the same molecule, the TGI in assay [7], in assay [8] and in [9] was over 100 µM in each case.
With `Nc1ncnc2c(C3OC(CO)C(O)C3O)c[nH]c12` (stereo not given), the figures for the GI50 in assay [10] and in assay [5] were 18.9 nM and 11.6 nM, respectively. Moreover, the TGI in assay [10] is 0.271 µM and 0.159 µM; in assay [2] it was 0.0758 µM and 0.0275 µM; in [3] it was 0.333 µM and 0.3 µM; in assay [4] it was 0.0988 µM and < 0.0135 µM; in [5], 0.0342 µM and 0.124 µM; in [6] it was 1.02 µM. Moreover, the TGI in assay [7] was 0.272 µM; in [8] it was 0.113 µM and 0.0973 µM; in assay [9], 16.4 µM.
With `CC(=O)N/N=C1\NN(C(C)=O)C2(S1)C(=O)Nc1ccccc12` (stereo not given), the TGI in assay [10], in assay [1], in [2], in assay [3], in assay [4] and in assay [5] was over 100 µM in each case. For the same molecule, the TGI in [7] and in assay [9] was over 100 µM in each case.
`Clc1cccc(Cl)c1C1ON=C(c2ccccc2)N1C12CC3CC(CC(C3)C1)C2` (stereo not given): the TGI is over 100 µM in assay [10]; over 100 µM in assay [2]; over 100 µM in [3]; 56.5 µM in assay [4]; 74.7 µM in assay [5]; over 100 µM in [6]. Besides, the TGI in assay [7], in assay [8] and in [9] was over 100 µM each time.
